Read-outs that look alike come from different tables or passages of the source.
Experiment: Pharmacokinetic evaluation following a single oral and intravenous administration
Type: in vivo, CD1 mouse
Experimental: A NMP stock solution was prepared by adding 1.136 mL of NMP to 5.68 mg of compound no. 42140 with vortexing and sonification, to obtain a solution with a concentration at 5 mg/mL of 42140:01. Next, to prepare an intravenous formulation, 0.100 mL of the 5 mg/mL stock solution was placed in a new vial. 0.100 mL of NMP and 0.400 mL of PEG400 were added with vortexing and sonification, followed by addition of 0.400 mL of saline with vortexing and sonification. […] 42140:01. Alternatively, to prepare an oral formulation, 0.200 mL of the 5 mg/mL stock solution was placed in a new vial. 0.400 mL of PEG400 was added with vortexing and sonification, followed by addition of 0.400 mL of saline with vortexing and sonifiction. […] 42140:01.
(§1) Briefly, the desired serial concentrations of working solutions were achieved by diluting a stock solution of the compound with 100% acetonitrile. 3 μL of working solutions (5, 10, 20, 50, 100, 500, 1000, 5000, 10000 ng/mL) were added to 30 μL of the blank CD1 mouse plasma to achieve calibration standards of 0.5-1000 ng/mL (0.5, 1, 2, 5, 10, 50, 100, 500, 1000 ng/mL) in a total volume of 33 μL. Five quality control samples at 1 ng/mL, 2 ng/mL, 5 ng/mL, 50 ng/mL and 800 ng/mL for plasma were prepared independently of those used for the calibration curves. These QC samples were prepared on the day of analysis in the same way as calibration standards.
Next, 33 μL standards, 33 μL QC samples, and 33 μL unknown samples (30 μL plasma with 3 μL blank solution) were added to 200 μL of acetonitrile containing IS mixture for precipitating protein, respectively. Then the samples were vortexed for 30 s. After centrifugation at 4 degree Celsius, 4000 rpm for 15 min, 3 μL of supernatant was injected into the LC/MS/MS system for quantitative analysis.
HPLC analysis was performed using 100% water with 0.1% formic acid (Solution A) and 100% acetonitrile with 0.1% formic acid (Solution B) with a flow rate of 0.6 mL/min.
A NMP stock solution was prepared by adding 2.092 mL of NMP to 10.46 mg of […] with vortexing and sonification, to obtain a solution with a concentration at 5 mg/mL of […]. Next, to prepare an intravenous formulation, 0.100 mL of the 5 mg/mL stock solution was placed in a new vial. 0.100 mL of NMP and 0.400 mL of PEG400 were added with vortexing and sonification, followed by addition of 0.400 mL of saline with vortexing and sonification. […] 42320:01. Alternatively, to prepare an oral formulation, 0.200 mL of the 5 mg/mL stock solution was placed in a new vial. 0.400 mL of PEG400 was added with vortexing and sonification, followed by addition of 0.400 mL of saline with vortexing and sonifiction. […] 42320:01.
as §1, with “50 ng/mL,” for “50 ng/mL”

[1] = CD1, mouse, plasma, po, 5 mg/kg, Table 11, PO Dose: 5 mg/kg, Mouse 4, read-out: Concentration
[2] = CD1, mouse, plasma, po, 5 mg/kg, Table 11, PO Dose: 5 mg/kg, Mouse 5, read-out: Concentration
[3] = CD1, mouse, plasma, po, 5 mg/kg, Table 11, PO Dose: 5 mg/kg, Mouse 6, read-out: Concentration
[4] = CD1, mouse, plasma, po, 5 mg/kg, Table 11, PO Dose: 5 mg/kg, mean, read-out: Concentration, Mean
[5] = Table 10, IV Dose: 1 mg/kg, Mouse 1
[6] = Table 10, IV Dose: 1 mg/kg, Mouse 2
[7] = Table 10, IV Dose: 1 mg/kg, Mouse 3
[8] = Table 10, IV Dose: 1 mg/kg, mean
[9] = Table 12, PO Dose: 5 mg/kg, Mouse 4
[10] = Table 12, PO Dose: 5 mg/kg, Mouse 5
[11] = Table 12, PO Dose: 5 mg/kg, Mouse 6
[12] = Table 12, PO Dose: 5 mg/kg, mean

CC(=O)N[C@@H](Cc1ccc(CN(C)C)cc1)c1nnc(-c2cccc(OC(F)(F)F)c2)s1 [Compound 42320, N-(2-(4-((dimethylamino)methyl)phenyl)-1-(5-(3-(trifluoromethoxy)phenyl)-1,3,4-thiadiazol-2-yl)ethyl)acetamide]
concentration at 2 h [1]: 165 ng/mL | concentration at 2 h [2]: 100 ng/mL | concentration at 2 h [3]: 105 ng/mL | concentration at 2 h [4]: 123 ng/mL | concentration at 4 h [1]: 88.4 ng/mL | concentration at 4 h [2]: 64.2 ng/mL | concentration at 4 h [3]: 77.7 ng/mL | concentration at 4 h [4]: 76.8 ng/mL | concentration at 8 h [1]: 49 ng/mL | concentration at 8 h [2]: 37.2 ng/mL | concentration at 8 h [3]: 37.4 ng/mL | concentration at 8 h [4]: 41.2 ng/mL | concentration at 24 h (CD1, mouse, plasma, po, 5 mg/kg, Table 11, PO Dose: 5 mg/kg, 24 h, Mouse 6, read-out: Concentration): 3.26 ng/mL | AUC(0-inf) (CD1, mouse, plasma, po, 5 mg/kg, Table 12, PO Dose: 5 mg/kg, Mouse 4, read-out: AUCInf): 1110 ng·h/mL | AUC(0-t) (CD1, mouse, plasma, po, 5 mg/kg, Table 12, PO Dose: 5 mg/kg, Mouse 4, read-out: AUClast): 856 ng·h/mL | Cmax (CD1, mouse, plasma, po, 5 mg/kg, Table 12, PO Dose: 5 mg/kg, Mouse 4, read-out: Cmax): 201 ng/mL | MRT inf (CD1, mouse, plasma, po, 5 mg/kg, Table 12, PO Dose: 5 mg/kg, Mouse 4, read-out: MRTInf—obs): 5.27 h | half-life (CD1, mouse, plasma, po, 5 mg/kg, Table 12, PO Dose: 5 mg/kg, Mouse 4, read-out: T1/2 (converted)): 3.56 h | AUC(0-inf) (CD1, mouse, plasma, po, 5 mg/kg, Table 12, PO Dose: 5 mg/kg, Mouse 5, read-out: AUCInf): 801 ng·h/mL | AUC(0-t) (CD1, mouse, plasma, po, 5 mg/kg, Table 12, PO Dose: 5 mg/kg, Mouse 5, read-out: AUClast): 569 ng·h/mL | Cmax (CD1, mouse, plasma, po, 5 mg/kg, Table 12, PO Dose: 5 mg/kg, Mouse 5, read-out: Cmax): 121 ng/mL | MRT inf (CD1, mouse, plasma, po, 5 mg/kg, Table 12, PO Dose: 5 mg/kg, Mouse 5, read-out: MRTInf—obs): 6.33 h | half-life (CD1, mouse, plasma, po, 5 mg/kg, Table 12, PO Dose: 5 mg/kg, Mouse 5, read-out: T1/2 (converted)): 4.31 h | AUC(0-inf) (CD1, mouse, plasma, po, 5 mg/kg, Table 12, PO Dose: 5 mg/kg, Mouse 6, read-out: AUCInf): 961 ng·h/mL | AUC(0-t) (CD1, mouse, plasma, po, 5 mg/kg, Table 12, PO Dose: 5 mg/kg, Mouse 6, read-out: AUClast): 940 ng·h/mL | Cmax (CD1, mouse, plasma, po, 5 mg/kg, Table 12, PO Dose: 5 mg/kg, Mouse 6, read-out: Cmax): 122 ng/mL | MRT inf (CD1, mouse, plasma, po, 5 mg/kg, Table 12, PO Dose: 5 mg/kg, Mouse 6, read-out: MRTInf—obs): 5.84 h | half-life (CD1, mouse, plasma, po, 5 mg/kg, Table 12, PO Dose: 5 mg/kg, Mouse 6, read-out: T1/2 (converted)): 4.42 h | AUC(0-inf) (CD1, mouse, plasma, po, 5 mg/kg, Table 12, PO Dose: 5 mg/kg, mean, read-out: AUCInf, Mean): 956 ng·h/mL | AUC(0-t) (CD1, mouse, plasma, po, 5 mg/kg, Table 12, PO Dose: 5 mg/kg, mean, read-out: AUClast, Mean): 788 ng·h/mL | Cmax (CD1, mouse, plasma, po, 5 mg/kg, Table 12, PO Dose: 5 mg/kg, mean, read-out: Cmax, Mean): 148 ng/mL | MRT inf (CD1, mouse, plasma, po, 5 mg/kg, Table 12, PO Dose: 5 mg/kg, mean, read-out: MRTInf—obs, Mean): 5.81 h | half-life (CD1, mouse, plasma, po, 5 mg/kg, Table 12, PO Dose: 5 mg/kg, mean, read-out: T1/2, Mean (converted)): 4.1 h | Tmax (CD1, plasma, Table 12, PO Dose: 5 mg/kg, Mouse 4): 0.5 h | Concentration (Table 9, IV Dose: 1 mg/kg, 24 h, Mouse 1): BLOQ | Concentration (Table 9, IV Dose: 1 mg/kg, 24 h, Mouse 2): BLOQ | Concentration (Table 9, IV Dose: 1 mg/kg, 24 h, Mouse 3): BLOQ | AUClast/D [5]: 169 h·ng/mL per mg/kg | AUC—% Extrap—obs [5]: 7.32% | Cl_obs [5]: 91.3 mL/min/kg | AUClast/D [6]: 153 h·ng/mL per mg/kg | AUC—% Extrap—obs [6]: 7.31% | Cl_obs [6]: 101 mL/min/kg | AUClast/D [7]: 172 h·ng/mL per mg/kg | AUC—% Extrap—obs [7]: 10.6% | Cl_obs [7]: 86.3 mL/min/kg | AUClast/D, Mean [8]: 165 h·ng/mL per mg/kg | AUC—% Extrap—obs, Mean [8]: 8.4% | C0, Mean [8]: 100 ng/mL | Cl_obs, Mean [8]: 93 mL/min/kg | Concentration (Table 11, PO Dose: 5 mg/kg, 24 h, Mouse 4): BLOQ | Concentration (Table 11, PO Dose: 5 mg/kg, 24 h, Mouse 5): BLOQ | AUClast/D [9]: 171 h·ng/mL per mg/kg | AUC—% Extrap—obs [9]: 22.7% | F [9]: 104% | AUClast/D [10]: 114 h·ng/mL per mg/kg | AUC—% Extrap—obs [10]: 28.9% | F [10]: 69.0% | AUClast/D [11]: 188 h·ng/mL per mg/kg | AUC—% Extrap—obs [11]: 2.16% | F [11]: 107% | AUClast/D, Mean [12]: 158 h·ng/mL per mg/kg | AUC—% Extrap—obs, Mean [12]: 17.9% | F, Mean [12]: 93%
